US11753373B2, “Protease inhibitors as antivirals” (priority 2021, dated 2023)
pEC50, pIC50: −log10 of the molar value. Where two headings read alike, the source gives them in different places.

Tests used:
[1] = target: SARS-CoV-2 M^pro (3CL protease) (Severe acute respiratory syndrome coronavirus 2 (2019-nCoV) (SARS-CoV-2), UniProt P0DTD1); assay type: biochemical; conditions: read-out: SARS-CoV-2M^pro inhibition IC50
[2] = assay type: in vitro ADME; conditions: extraction ratio, compound at 1 uM; for Liver Microsomal Stability (ER) SD rat: SD rat liver microsomes 0.5 mg/mL; for Liver Microsomal Stability (ER) Beagle dog: beagle dog liver microsomes 0.5 mg/mL; for Liver Microsomal Stability (ER) Monkey: monkey liver microsomes 0.5 mg/mL; for Liver Microsomal Stability (ER) Mouse: mouse liver microsomes 0.5 mg/mL
[3] = assay type: in vitro ADME, Human; conditions: extraction ratio; for Liver Microsomal Stability (ER) Human: compound at 1 uM, human liver microsomes 0.5 mg/mL
[4] = test system: SARS-CoV-2; assay: Anti-viral in vitro PRNT assay in Vero E6 cells; assay type: cell-based; conditions: Vero E6 cells, 1000 pfu, 3 days, plaque reduction; for pEC50: read-out: anti-SARS-CoV2 (PRNT) in Vero E6 EC50
[5] = in vivo; conditions: female, Balb/c, mouse, po, 40 mg/kg
Method: (§1) Pharmacokinetics of test compounds was evaluated following an oral administration of a single dose (at 40 mg/kg) to female Balb/c mice.
(§2) Procedure: Test compounds were administered to Balb/c mice (n=3 per sex per time point) by a single oral gavage. The target dose level for oral administration was 40 mg/kg. Blood samples were collected at pre-dose, and at 0.083, 0.25, 0.50, 1, 2, 4, 6, 8, and 12 hours post-dose. Concentrations of test compound were determined by an LC-MS/MS. Non-compartmental Pharmacokinetic parameters of test compounds were analyzed using Phoenix WinNonlin 8.3.
(§3) Animal Dosing: All animals were fasted overnight through approximately 4 hours post-dose. Tap water was provided to mice ad Libitum. The mice were dosed orally at 10.0 ml/kg. The formulation volume of the test compound administered to each animal was calculated based on the body weight measured on the day of dosing.
(§4) Sample Collection and Analysis: Approximately 0.20 mL of blood was collected via orbital sinus vein puncture into EDTA-K2 tubes. Plasma samples were harvested by centrifugation and stored at −80° C. until analysis. The analytical method for test compound involved protein precipitation by adding acetonitrile containing 1% FA and internal standard (A-1-a synthesized in house or Tolbutamide purchased from Sigma), and final analysis by LC-MS/MS. A standard curve was prepared using mouse plasma for the test compound. The calibration curve was linear over a concentration range of 1.0 to 1000 ng/mL.
(§5) Pharmacokinetic and Statistic Analysis: The reported plasma concentrations of test compounds were used to determine pharmacokinetic parameters, using a non-compartmental model for data analysis (Phoenix WinNonlin 8.3). The common pharmacokinetic parameters were calculated, whenever possible, from the plasma concentration-versus-time data. Nominal doses and sampling times were used, except where deviations were noted. […] BQL after Tmax would not participate in calculation of PK parameters.

[6] = mouse oral PK, female Balb/c, 40 mg/kg single dose; for AUC0-t / Cmax / Tmax / t1/2: plasma
Method: as §1, §2, §3, §4, §5

[7] = Severe acute respiratory syndrome coronavirus 2, Vero C1008, 72 h
[8] = wild type Mpro 17 nM, substrate 40 uM

| Structure (SMILES) | pIC50 [1] | Liver Microsomal Stability (ER) SD rat [2] | Liver Microsomal Stability (ER) Beagle dog [2] | Liver Microsomal Stability (ER) Monkey [2] | Liver Microsomal Stability (ER) Mouse [2] | Liver Microsomal Stability (ER) Human [3] | pEC50 [4, 7] | pIC50 [1, 8] | anti-SARS-CoV2 (PRNT) in Vero E6 EC50 (μM) [4] | AUC0-t [5] [ng·h/mL] | Cmax [5] [ng/mL] | Tmax [5] [h] | half-life [5] [h] | AUC0-t [6] [ng·h/mL] | Cmax [6] [ng/mL] | Tmax [6] [h] | t1/2 [6] [h] | pEC50 [4] | F % (bioavailability) [6] [%] | Liver Microsomal Stability (ER) Human, at 0.1 uM ([3]; compound at 0.1 uM, human liver microsomes) |
| --- | --- | --- | --- | --- | --- | --- | --- | --- | --- | --- | --- | --- | --- | --- | --- | --- | --- | --- | --- | --- |
| CC(C)C[C@H](NC(=O)c1cc2ccccc2[nH]1)C(=O)N[C@@H](C[C@@H]1CCNC1=O)C(=O)CCl [Compound A-1-g, (2S)—N-[(2S)-4-chloro-3-oxo-1-[(3S)-2-oxopyrrolidin-3-yl]butan-2-yl]-2-[(1H-indol-2-yl)formamido]-4-methylpentanamide] | 7.33 | 0.77 | 0.71 | 0.68 | 0.53 | 0.80 | 4.74 | – | – | – | – | – | – | – | – | – | – | – | – | – |
| CC(C)C[C@H](NC(=O)c1cc2ccccc2[nH]1)C(=O)N[C@@H](C[C@@H]1CCNC1=O)C(=O)CO [Compound A-1-h] | – | 0.13 | 0.03 | – | 0.23 | 0.07 | – | 7.99 | Inactive | – | – | – | – | – | – | – | – | – | – | – |
| CC(C)C[C@H](NC(=O)c1cc2c(F)cccc2[nH]1)C(=O)N[C@H](C#N)C[C@@H]1CCNC1=O [Compound A-3-a, (2S)—N-[(1S)-1-cyano-2-[(3S)-2-oxopyrrolidin-3-yl]ethyl]-2-[(4-fluoro-1H-indol-2-yl)-formamido]-4-methylpentanamide] | – | 0.21 | 0.03 | 0.27 | 0.07 | 0.02 | 5.29 | – | – | 15500 | 8050 | 1 | 0.976 | – | – | – | – | – | – | – |
| Cc1cccc2[nH]c(C(=O)N[C@@H](CC(C)C)C(=O)N[C@@H](C[C@@H]3CCNC3=O)C(=O)CO)cc12 [Compound A-4-d] | – | 0.19 | 0.08 | – | 0.44 | 0.18 | – | 8.38 | – | – | – | – | – | 120 | 52 | 4 | 2.14 | 5.69 | – | – |
| CC(C)C[C@H](CC(=O)[C@@H](NC(=O)OCc1ccccc1)[C@@H](C)OC(C)(C)C)C(=O)N[C@H](C=O)C[C@@H]1CCNC1=O [Compound C-1-b] | – | 0.23 | 0.48 | 0.51 | 0.45 | 0.66 | – | 8.89 | – | – | – | – | – | 128.4 | 46.1 | 2 | 0.704 | 5.99 | 2.9 | – |
| CC(C)(C)[C@H](NC(=O)C(F)(F)F)C(=O)N1C[C@H]2[C@@H]([C@H]1C(=O)N[C@H](C=O)C[C@@H]1CCNC1=O)C2(C)C [Compound D-1-f] | – | −0.02 | 0.01 | 0.13 | −0.02 | 0.093, | – | 8.97 | – | – | – | – | – | 1402 | 839 | 1 | 1.37 | 5.12 | – | 0.22(0.1 uM)* |
| CC(C)(C)[C@H](NC(=O)C(F)(F)F)C(=O)N1C[C@H]2[C@@H]([C@H]1C(=O)N[C@H](C#N)C[C@@H]1CCCNC1=O)C2(C)C [Compound D-3-a] | – | 0.09 | 0.16 | – | 0.66 | 0.38 | – | 8.23 | – | – | – | – | – | 5590 | 7070 | 0.25 | 0.706 | 5.90 | – | – |
| CC(C)C[C@H](NC(=O)c1cc2ccccc2[nH]1)C(=O)N1C[C@H]2[C@@H]([C@H]1C(=O)N[C@H](C=O)C[C@@H]1CCNC1=O)C2(C)C [Compound G-1-a] | – | 0.16 | 0.09 | 0.33 | 0.00 | 0.28 | – | 8.02 | – | – | – | – | – | 36.1 | 13.3 | 1 | 0.92 | 4.60 | – | – |
| CC(C)C[C@H](NC(=O)c1cc2ccccc2[nH]1)C(=O)N1C[C@H]2[C@@H]([C@H]1C(=O)N[C@H](C#N)C(C)(C)C)C2(C)C [Compound G-3-b] | – | 0.20 | 0.32 | – | 0.55 | 0.28 | – | < 5.00 | – | – | – | – | – | 383.7 | 169 | 2 | 0.773 | – | – | – |
| CC(C)C[C@H](NC(=O)C(F)F)C(=O)N1C[C@H]2[C@@H]([C@H]1C(=O)N[C@H](C=O)C[C@@H]1CCNC1=O)C2(C)C [Compound H-1-a] | – | 0.05 | 0.10 | – | 0.24 | 0.08 | – | 8.20 | inactive | – | – | – | – | – | – | – | – | – | – | – |
| CC(C)C[C@H](NC(=O)C(C)(C)C)C(=O)N1C[C@H]2[C@@H]([C@H]1C(=O)N[C@H](C#N)C[C@@H]1CCNC1=O)C2(C)C [Compound H-1-d] | – | 0.09 | 0.16 | – | 0.63 | 0.26 | – | 7.40 | Inactive | – | – | – | – | – | – | – | – | – | – | – |
| CC(C)C[C@H](NC(=O)C1CC1)C(=O)N1C[C@H]2[C@@H]([C@H]1C(=O)N[C@H](C#N)C[C@@H]1CCNC1=O)C2(C)C [Compound H-1-f] | – | 0.04 | 0.01 | – | 0.27 | 0.03 | – | 7.54 | Inactive | – | – | – | – | 72.0 | 32.1 | 1.0 | 1.43 | – | – | – |
| CC(C)(C)C(=O)N[C@H](C(=O)N1C[C@H]2[C@@H]([C@H]1C(=O)N[C@H](C#N)C[C@@H]1CCNC1=O)C2(C)C)C(C)(C)C [Compound H-2-a] | – | 0.15 | 0.52 | – | 0.83 | 0.53 | – | 7.39 | Inactive | – | – | – | – | – | – | – | – | – | – | – |
| CC(C)(C)[C@H](NC(=O)C1CC1)C(=O)N1C[C@H]2[C@@H]([C@H]1C(=O)N[C@H](C#N)C[C@@H]1CCNC1=O)C2(C)C [Compound H-2-c] | – | 0.01 | 0.01 | – | 0.32 | 0.02 | – | 8.21 | – | – | – | – | – | – | – | – | – | 5.47 | – | – |
| CC(C)C[C@H](NC(=O)[C@@H](NC(=O)C(F)F)[C@@H](C)OC(C)(C)C)C(=O)N[C@H](C#N)C[C@@H]1CCNC1=O [Compound H-3-a] | – | 0.21 | 0.06 | – | 0.68 | 0.35 | – | 8.09 | – | – | – | – | – | – | – | – | – | 5.66 | – | – |
